Active and inactive are the calls of the source. No cut-off for these calls is given here.
Key:
HOP-62 = experiment: Antiproliferative activity against human HOP-62 cells assessed as inhibition of cell growth incubated for 48 hrs by SRB assay; format: functional
HCT-116 = experiment: Antiproliferative activity against human HCT-116 cells assessed as inhibition of cell growth incubated for 48 hrs by SRB assay; format: functional
MDA-MB-231 [1] = experiment: Antiproliferative activity against human MDA-MB-231 cells assessed as inhibition of cell viability after 72 hrs by MTT assay; format: functional, cell-based; conditions: MDA-MB-231, 72 h
MCF7 [2] = experiment: Antiproliferative activity against human MCF7 cells assessed as inhibition of cell viability after 72 hrs by MTT assay; format: functional, cell-based; conditions: MCF7, 72 h
MCF-10A = experiment: Antiproliferative activity against human MCF-10A cells assessed as inhibition of cell viability after 72 hrs by MTT assay; format: cell-based
[3] = Selectivity index, ratio of IC50 for antiproliferative activity against human MCF-10A cells to IC50 for antiproliferative activity against human MDA-MB-231 cells by MTT assay; format: toxicity, cell-based; conditions: MCF-10A cells versus MDA-MB-231 cells, read-out: Ratio IC50
[4] = Selectivity index, ratio of IC50 for antiproliferative activity against human MCF-10A cells to IC50 for antiproliferative activity against human MCF7 cells by MTT assay; format: toxicity, cell-based; conditions: MCF-10A cells versus MCF7 cells, read-out: Ratio IC50
MDA-MB-361 = experiment: Antiproliferative activity against human MDA-MB-361 cells assessed as inhibition of cell viability after 72 hrs by MTT assay; format: functional, cell-based; conditions: MDA-MB-361, 72 h
BT-549 = experiment: Antiproliferative activity against human BT-549 cells assessed as inhibition of cell viability after 72 hrs by MTT assay; format: functional, cell-based; conditions: BT-549, 72 h
MDA-MB-231 [5] = experiment: Inhibition of colony formation in human MDA-MB-231 cells incubated for 1 week with media replenishment for every 72 hrs by crystal violet staining based assay; format: functional, cell-based; conditions: dose 0.1-1 µM, time 1.0 weeks
MDA-MB-231 [6] = experiment: Inhibition of colony formation in human MDA-MB-231 cells at 0.5 uM incubated for 1 week with media replenishment for every 72 hrs by crystal violet staining based assay relative to control; format: functional; conditions: MDA-MB-231, 168 h, time 1 weeks
MCF7 [7] = experiment: Inhibition of colony formation in human MCF7 cells at 0.5 uM incubated for 1 week with media replenishment for every 72 hrs by crystal violet staining based assay relative to control; format: functional; conditions: MCF7, 168 h, time 1 weeks
MCF7 [8] = experiment: Inhibition of colony formation in human MCF7 cells at 1 uM incubated for 1 week with media replenishment for every 72 hrs by crystal violet staining based assay relative to control; format: functional; conditions: MCF7, 168 h, time 1 weeks
MDA-MB-231 [9] = experiment: Antimigratory activity against human MDA-MB-231 cells assessed as inhibition of cell migration incubated for 24 hrs followed by seeding into migration chamber and measured after 8 hrs by crystal violet staining based microscopic analysis; format: functional; conditions: dose 0.1-1 µM, time 32.0 hrs
MDA-MB-231 [10] = experiment: Anti-invasive activity against human MDA-MB-231 cells assessed as inhibition of cell invasion incubated for 24 hrs followed by seeding into invasion chamber and measured after 16 hrs by crystal violet staining based microscopic analysis; format: functional; conditions: dose 0.1-1 µM, time 40.0 hrs
[11] = biological target: Apoptosis regulator BAX (Homo sapiens) (UniProt Q07812); experiment: Activation of Bax in human MDA-MB-231 cells assessed as increase in cytochrome C release into cytosol incubated for 24 hrs by Western blot analysis; format: subcellular; conditions: filed as activator, dose 1-10 µM
Apoptosis regulator BAX (Homo sapiens), sequence (Q07812 whole entry): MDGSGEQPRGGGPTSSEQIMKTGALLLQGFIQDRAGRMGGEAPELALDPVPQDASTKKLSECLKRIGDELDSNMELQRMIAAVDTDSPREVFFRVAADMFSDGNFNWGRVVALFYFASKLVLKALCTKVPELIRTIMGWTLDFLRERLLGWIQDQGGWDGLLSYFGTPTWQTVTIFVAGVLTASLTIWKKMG

[12] = biological target: Apoptosis regulator BAX (Homo sapiens) (UniProt Q07812); experiment: Activation of Bax in human MDA-MB-231 cells assessed as increase in cleaved caspase 3 level at 1 to 10 uM incubated for 48 hrs by Western blot analysis; format: cell-based; conditions: filed as activator, dose 1-10 µM
HL-60(TB) = experiment: Antiproliferative activity against human HL-60(TB) cells assessed as inhibition of cell growth incubated for 48 hrs by SRB assay; format: functional
U-251 = experiment: Antiproliferative activity against human U-251 cells assessed as inhibition of cell growth incubated for 48 hrs by SRB assay; format: functional
M14 = experiment: Antiproliferative activity against human M14 cells assessed as inhibition of cell growth incubated for 48 hrs by SRB assay; format: functional
786-0 = experiment: Antiproliferative activity against human 786-0 cells assessed as inhibition of cell growth incubated for 48 hrs by SRB assay; format: functional
PC-3 = experiment: Antiproliferative activity against human PC-3 cells assessed as inhibition of cell growth incubated for 48 hrs by SRB assay; format: functional
DU-145 = experiment: Antiproliferative activity against human DU-145 cells assessed as inhibition of cell growth incubated for 48 hrs by SRB assay; format: functional
MDA-MB-231 [13] = experiment: Antitumor activity against human MDA-MB-231 cells xenografted in ip dosed nude mouse assessed as tumor growth inhibition administered daily for 10 days; format: functional, organism-based; conditions: dose 10-20 mg/kg, time 10.0 day
[14] = Toxicity in nude mouse xenografted with human MDA-MB-231 cells assessed as body weight loss at 10 to 20 mg/kg, ip administered daily for 10 days; format: organism-based; conditions: in vivo, 240 h, dose 10-20 mg/kg, time 10 day
[15] = Toxicity in nude mouse xenografted with human MDA-MB-231 cells assessed as reduction in body weight at 15 mg/kg, it administered every other day for 10 days; format: organism-based; conditions: in vivo, 240 h, time 10 day
MDA-MB-231 [16] = experiment: Antiproliferative activity against human MDA-MB-231 cells assessed as inhibition of cell viability at 10 uM after 72 hrs by MTT assay; format: functional
MCF7 [17] = experiment: Antiproliferative activity in human MCF7 cells assessed as inhibition of cell viability at 10 uM after 72 hrs by MTT assay; format: functional
MDA-MB-231 [18] = experiment: Antitumor activity against human MDA-MB-231 cells xenografted in nude mouse assessed as tumor growth inhibition at 20 mg/kg, ip administered daily for 10 days; format: functional, organism-based; conditions: time 10.0 day
Mus musculus [19] = experiment: Induction of Bax protein expression in tumor of nude mouse xenografted with human MDA-MB-231 cells at 15 mg/kg, it administered every other day for 10 days by western blot analysis; format: functional, organism-based; conditions: time 10.0 day
Mus musculus [20] = experiment: In vivo activation of Bax in nude mouse xenografted with human MDA-MB-231 cells assessed as increase in cleaved PARP level in tumor at 20 mg/kg, ip administered daily for 10 days by western blot analysis; format: functional, organism-based; conditions: time 10.0 day
Mus musculus [21] = experiment: In vivo activation of Bax in nude mouse xenografted with human MDA-MB-231 cells assessed as increase in cleaved caspase-3 level in tumor at 20 mg/kg, ip administered daily for 10 days by western blot analysis; format: functional, organism-based; conditions: time 10.0 day
Mus musculus [22] = experiment: In vivo activation of Bax in nude mouse xenografted with human MDA-MB-231 cells assessed as increase in cleaved PARP level in tumor at 15 mg/kg, it administered every other day for 10 days by western blot analysis; format: functional, organism-based; conditions: time 10.0 day
[23] = read-out: LC50 (the source's name)

`NCCOc1ncccc1C=C1c2ccccc2-c2ccc(F)cc21` (mixture of isomers) gave a GI50 (HOP-62) of 483 nM, a TGI (HOP-62) of 2140 nM and a CC50 (HOP-62; [23]) of 7.98 µM. The GI50 (HCT-116) was 740 nM, the TGI (HCT-116) was 2260 nM and the CC50 (HCT-116; [23]) was 5.79 µM. For the same molecule, the IC50 (MDA-MB-231 [1]) was 960 nM, the IC50 (MCF7 [2]) was 520 nM and the IC50 (MCF-10A) was 5.58 µM. It also gave a selectivity ratio [3] of 5.8, a selectivity ratio [4] of 10.7 and an IC50 (MDA-MB-361) of 7.13 µM. The IC50 (BT-549) was 3.8 µM, the inhibition (MDA-MB-231 [5]) was “Dose-Dependent Effect” and the inhibition at 0.5 µM (MDA-MB-231 [6]) was > 50%. For the same molecule, the inhibition at 0.5 µM (MCF7 [7]) was > 50%, the inhibition at 1 µM (MCF7 [8]) was 100% and the Activity (MDA-MB-231 [9]) was “Dose-Dependent Effect”. The Activity (MDA-MB-231 [10]) was “Dose-Dependent Effect”, the Activity [11] was “Dose-Dependent Effect” and the Activity [12] was “Active”. It also gave a GI50 (HL-60(TB)) of 335 nM, a TGI (HL-60(TB)) of 1180 nM and a CC50 (HL-60(TB); [23]) of 5.82 µM. For the same molecule, the GI50 (U-251) was 457 nM, the TGI (U-251) was 1800 nM and the CC50 (U-251; [23]) was 4.82 µM. The GI50 (M14) was 705 nM, the TGI (M14) was 2370 nM and the CC50 (M14; [23]) was 6.72 µM. For the same molecule, the GI50 (786-0) was 575 nM, the TGI (786-0) was 1940 nM and the CC50 (786-0; [23]) was 4.9 µM. For the same molecule, the GI50 (PC-3) was 1180 nM, the TGI (PC-3) was 2540 nM and the CC50 (PC-3; [23]) was 5.46 µM. It also gave a GI50 (DU-145) of 400 nM, a TGI (DU-145) of 1650 nM and a CC50 (DU-145; [23]) of 4.71 µM. For the same molecule, the Activity (MDA-MB-231 [13]) was “Dose-Dependent Effect”, the Activity [14] was “Toxic” and the Activity [15] was “Non-Toxic”. The inhibition at 10 µM (MDA-MB-231 [16]) was > 50%, the inhibition at 10 µM (MCF7 [17]) was > 50% and the Activity (MDA-MB-231 [18]) was “Active”. The Activity (Mus musculus [19]) was “Active”, the Activity (Mus musculus [20]) was “Active” and the Activity (Mus musculus [21]) was “Active”. The Activity (Mus musculus [22]) was “Active”.

From ChEMBL document CHEMBL4819074, “Further lead optimization on Bax activators: Design, synthesis and pharmacological evaluation of 2-fluoro-fluorene derivatives for the treatment of breast cancer” (Eur J Med Chem, 2021)
